Source: patent US10654833B2, “ASK1 isoindolin-1-one inhibitors and methods of use thereof” (Hepatikos Therapeutics, LLC, priority 2018, dated 2020)

Experiments:
[1] = biological target: human OATP1B3 transporter (Homo sapiens (Human), UniProt Q9NPD5); assay: Transporter mediated cellular uptake, OATP1B3-expressing HEK293; assay type: in vitro ADME; conditions: HEK293 stably expressing human OATP1B3, 37° C., 5 minutes
Protocol: (§1) Transporter Mediated Cellular Uptake
(§2) To determine transporter mediated cellular uptake of compounds, HEK293 stably expressing either human OATP1B1 or human OATP1B3 transporter, or mock transfected cells were cultured at 37° C. in an atmosphere of 95:5 air:CO2 DMEM/F12 medium containing 10% FBS, 100 unit/mL penicillin-G and 100 μg/mL streptomycin. Transporter expressing cell culture medium also contained 500 μg/mL G418 disulfate solution. Cells were plated onto 24-well poly-D-lysine coated culture plates at the density 5×10^5 cells/well 24 hours prior to uptake assay. Compound stock solutions were made at 1000× final concentration in 100% DMSO. Final compound solutions were prepared by diluting stock solutions into HBSS buffer (pH 7.4) On the day of the uptake assay cell culture media was removed and cells were washed twice with 300 μL of HBSS buffer (pH 7.4). Cellular uptake of compound into the cells was measured by adding 300 μL of final compound solutions in HBSS and incubating them at 37° C. for 0.5 minutes (OATP1B1) or 5 minutes (OATP1B3). Reactions were quenched by removing the buffer containing the TA and the cells were washed twice with 300 μL of HBSS buffer. Cells were lysed by adding 300 μL of MeOH:H2O (2:1) and incubated for 20 minutes at 4° C. The amount of compound in the cell lysate was determined by LC-MS/MS. The amount of protein in each well was quantified using the BCA kit for protein determination and used to normalize compound uptake (Sigma-Aldrich, St Louis, Mo., USA). • Uptake of the probe substrate in control cells provided background activity values for all data points. • Incubation with probe substrate (solvent only) provided 100% activity values. • A reference positive control was used for each transporter

[2] = biological target: ASK1 kinase active site (Homo sapiens (Human), UniProt Q99683); assay: ASK1 kinase active site binding assay (KINOMEscan); conditions: 11-point 3-fold dilution series
ASK1 kinase active site, sequence (Q99683 whole entry): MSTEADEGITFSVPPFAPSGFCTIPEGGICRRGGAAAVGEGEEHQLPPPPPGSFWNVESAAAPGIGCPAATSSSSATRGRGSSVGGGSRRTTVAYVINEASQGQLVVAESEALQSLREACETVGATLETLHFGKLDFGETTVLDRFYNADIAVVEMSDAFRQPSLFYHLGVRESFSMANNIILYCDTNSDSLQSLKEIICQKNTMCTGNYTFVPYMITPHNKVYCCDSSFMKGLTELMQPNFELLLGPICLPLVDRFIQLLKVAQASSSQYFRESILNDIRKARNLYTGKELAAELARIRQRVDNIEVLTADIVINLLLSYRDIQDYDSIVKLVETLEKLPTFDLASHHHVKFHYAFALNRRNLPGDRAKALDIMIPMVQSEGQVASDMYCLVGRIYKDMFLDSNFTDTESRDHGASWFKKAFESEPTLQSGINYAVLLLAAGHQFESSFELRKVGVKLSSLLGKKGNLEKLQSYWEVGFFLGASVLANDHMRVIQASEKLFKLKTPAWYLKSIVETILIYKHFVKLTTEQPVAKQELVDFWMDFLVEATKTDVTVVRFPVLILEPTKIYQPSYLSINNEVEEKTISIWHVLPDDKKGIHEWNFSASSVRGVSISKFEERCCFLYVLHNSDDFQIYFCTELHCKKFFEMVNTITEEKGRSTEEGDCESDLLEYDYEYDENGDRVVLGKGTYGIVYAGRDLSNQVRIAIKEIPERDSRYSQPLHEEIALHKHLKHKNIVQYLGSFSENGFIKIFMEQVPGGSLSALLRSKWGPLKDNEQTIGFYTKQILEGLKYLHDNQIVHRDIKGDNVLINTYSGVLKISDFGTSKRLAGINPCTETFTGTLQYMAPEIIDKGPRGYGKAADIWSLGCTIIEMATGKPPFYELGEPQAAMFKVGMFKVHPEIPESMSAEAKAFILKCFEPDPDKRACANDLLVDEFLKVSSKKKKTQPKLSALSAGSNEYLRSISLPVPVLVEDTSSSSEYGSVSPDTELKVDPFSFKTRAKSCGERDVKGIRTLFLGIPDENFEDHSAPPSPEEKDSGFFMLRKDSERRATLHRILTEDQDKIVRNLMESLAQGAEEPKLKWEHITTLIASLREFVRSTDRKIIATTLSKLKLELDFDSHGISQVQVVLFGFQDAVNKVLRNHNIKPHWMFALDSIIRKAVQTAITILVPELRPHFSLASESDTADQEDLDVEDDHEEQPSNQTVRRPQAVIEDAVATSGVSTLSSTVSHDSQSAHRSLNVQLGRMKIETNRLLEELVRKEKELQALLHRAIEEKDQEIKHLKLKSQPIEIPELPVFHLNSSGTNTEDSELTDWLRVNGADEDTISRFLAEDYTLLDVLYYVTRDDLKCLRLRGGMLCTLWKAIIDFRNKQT
Protocol: ASK1 Kinase Active Site Binding Assay
Compound binding to the ASK1 kinase active site was determined using the KINOMEscan Assay platform (DiscoverX, San Diego, Calif.). Briefly, ASK1-tagged T7 phage strains were prepared in an E. coli host derived from the BL21 strain. E. coli were grown to log-phase and infected with T7 phage and incubated with shaking at 32° C. until lysis. The lysates were centrifuged and filtered to remove cell debris. The remaining kinases were produced in HEK-293 cells and subsequently tagged with DNA for qPCR detection. Streptavidin-coated magnetic beads were treated with biotinylated small molecule ligands for 30 minutes at room temperature to generate affinity resins for kinase assays. The liganded beads were blocked with excess biotin and washed with blocking buffer (SeaBlock (Pierce), 1% BSA, 0.05% Tween 20, 1 mM DTT) to remove unbound ligand and to reduce nonspecific binding. Binding reactions were assembled by combining kinases, liganded affinity beads, and test compounds in 1× binding buffer (20% SeaBlock, 0.17×PBS, 0.05% Tween 20, 6 mM DTT). Test compounds were prepared as 111× stocks in 100% DMSO. Kds were determined using an 11-point 3-fold compound dilution series with three DMSO control points. […] The kinase concentration in the eluates was measured by qPCR. Binding constants (Kds) were calculated with a standard dose-response curve using the Hill equation. […]

[3] = biological target: human OATP1B1 transporter (Homo sapiens (Human), UniProt Q9Y6L6); assay: Transporter mediated cellular uptake, OATP1B1-expressing HEK293; assay type: in vitro ADME; conditions: HEK293 stably expressing human OATP1B1, 37° C., 0.5 minutes
human OATP1B1 transporter, sequence (Q9Y6L6 whole entry): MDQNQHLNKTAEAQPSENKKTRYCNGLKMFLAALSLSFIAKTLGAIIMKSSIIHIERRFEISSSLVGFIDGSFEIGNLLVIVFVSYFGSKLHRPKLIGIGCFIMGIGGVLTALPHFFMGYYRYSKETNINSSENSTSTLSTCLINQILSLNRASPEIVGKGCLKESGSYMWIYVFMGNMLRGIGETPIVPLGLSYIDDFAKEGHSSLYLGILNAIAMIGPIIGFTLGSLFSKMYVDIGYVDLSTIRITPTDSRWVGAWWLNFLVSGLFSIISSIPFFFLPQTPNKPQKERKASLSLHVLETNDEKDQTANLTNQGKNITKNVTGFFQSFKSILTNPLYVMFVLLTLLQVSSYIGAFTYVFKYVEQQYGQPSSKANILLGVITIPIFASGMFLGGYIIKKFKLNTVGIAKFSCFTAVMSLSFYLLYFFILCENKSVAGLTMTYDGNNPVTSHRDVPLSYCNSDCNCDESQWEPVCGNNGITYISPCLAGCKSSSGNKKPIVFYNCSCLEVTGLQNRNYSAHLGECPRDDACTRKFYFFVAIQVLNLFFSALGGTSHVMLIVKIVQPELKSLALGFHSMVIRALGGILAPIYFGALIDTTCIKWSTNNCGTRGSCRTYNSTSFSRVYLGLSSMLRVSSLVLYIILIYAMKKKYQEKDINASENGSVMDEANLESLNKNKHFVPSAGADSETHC
Protocol: as §1, §2

[4] = biological target: recombinant human ASK1 protein (Homo sapiens (Human), UniProt Q99683); assay: ASK1 kinase activity inhibition assay (radiometric 33P incorporation into MBP); assay type: biochemical; conditions: 20 μM MBP, 10 μM 33P-ATP
recombinant human ASK1 protein, sequence (Q99683 whole entry): as the sequence (Q99683 whole entry) above
In short: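 Compound (1% DMSO final) was preincubated for 20 min at room temperature with recombinant human ASK1 and 20 μM MBP in HEPES pH 7.5 buffer. Reactions started with 10 μM 33P-ATP and ran for 2 h at room temperature. 33P incorporation into MBP was measured by P81 filter binding.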

human OATP1B3 transporter, sequence (Q9NPD5 whole entry): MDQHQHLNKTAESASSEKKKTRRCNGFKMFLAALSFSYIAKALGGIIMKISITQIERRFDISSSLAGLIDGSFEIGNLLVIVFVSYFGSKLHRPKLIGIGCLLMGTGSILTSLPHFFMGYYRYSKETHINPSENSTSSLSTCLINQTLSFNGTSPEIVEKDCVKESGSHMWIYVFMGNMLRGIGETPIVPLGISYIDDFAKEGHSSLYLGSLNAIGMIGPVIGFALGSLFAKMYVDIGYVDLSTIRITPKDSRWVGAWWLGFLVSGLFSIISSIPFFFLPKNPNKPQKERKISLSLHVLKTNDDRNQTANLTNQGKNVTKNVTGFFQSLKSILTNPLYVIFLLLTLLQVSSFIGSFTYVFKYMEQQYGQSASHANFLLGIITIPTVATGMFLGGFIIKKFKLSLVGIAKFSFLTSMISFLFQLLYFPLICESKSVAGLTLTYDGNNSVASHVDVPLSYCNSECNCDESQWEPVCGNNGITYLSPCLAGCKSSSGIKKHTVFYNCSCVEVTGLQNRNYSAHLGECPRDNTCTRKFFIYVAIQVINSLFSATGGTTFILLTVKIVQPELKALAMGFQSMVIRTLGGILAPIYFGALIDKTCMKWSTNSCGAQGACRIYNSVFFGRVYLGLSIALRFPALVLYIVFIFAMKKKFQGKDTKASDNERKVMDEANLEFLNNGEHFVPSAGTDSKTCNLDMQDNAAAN

Structure (SMILES)	OATP1B3 Uptake (Percent of no transporter control cell) [1] [%]	Kd [2] [nM]	OATP1B1 Uptake (Percent of no transporter control cell) [3] [%]	IC50 ([4]; Table 2) [nM]	IC50 ([4]; Table 3) [nM]
CC(C)n1cnnc1-c1cccc(N2Cc3ccc(-c4ccc(C(C)(C)C(=O)O)cc4)cc3C2=O)n1 [Compound 39, 2-(4-(2-(6-(4-isopropyl-4H-1,2,4-triazol-3-yl)pyridin-2-yl)-3-oxoisoindolin-5-yl)phenyl)-2-methylpropanoic acid]	316	0.86	175	3.3	
CC(C)n1cnnc1-c1cccc(N2Cc3ccc(-c4cccc(C(=O)O)c4)cc3C2=O)n1 [Compound 1, 3-(2-(6-(4-isopropyl-4H-1,2,4-triazol-3-yl)pyridin-2-yl)-3-oxoisoindolin-5-yl)benzoic acid]	399	0.75	753	5.2	5.2
